Experimental data: PubChem BioAssay (NCI)
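All cell lines were grown in 96-well plates and treated with compound for 48 hours. GI50 = concentration required for 50% inhibition of growth. At the TGI there is no net growth.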

Legend:
Test in all cases: NCI-60 cell line screen, 48 h
SNB-19 CNS = tested on: SNB-19 CNS
UO-31 renal = tested on: UO-31 renal
A549 NSCLC = tested on: A549 NSCLC
RXF 393 renal = tested on: RXF 393 renal
786-0 renal = tested on: 786-0 renal
UACC-62 melanoma = tested on: UACC-62 melanoma
HS 578T breast = tested on: HS 578T breast
NCI/ADR-RES ovarian = tested on: NCI/ADR-RES ovarian
UACC-257 melanoma = tested on: UACC-257 melanoma
BT-549 breast = tested on: BT-549 breast
SK-OV-3 ovarian = tested on: SK-OV-3 ovarian
DU-145 prostate = tested on: DU-145 prostate
U251 CNS = tested on: U251 CNS
MDA-MB-435 = tested on: MDA-MB-435
MDA-MB-231 breast = tested on: MDA-MB-231 breast
HCC-2998 colon = tested on: HCC-2998 colon
PC-3 prostate = tested on: PC-3 prostate
COLO 205 colon = tested on: COLO 205 colon
SF-268 CNS = tested on: SF-268 CNS
SF-295 CNS = tested on: SF-295 CNS
IGROV1 ovarian = tested on: IGROV1 ovarian
SR leukemia = tested on: SR leukemia
A498 renal = tested on: A498 renal
HCT-116 colon = tested on: HCT-116 colon
SK-MEL-2 melanoma = tested on: SK-MEL-2 melanoma
K-562 leukemia = tested on: K-562 leukemia
OVCAR-3 ovarian = tested on: OVCAR-3 ovarian
HCT-15 colon = tested on: HCT-15 colon
KM12 colon = tested on: KM12 colon
LOX IMVI melanoma = tested on: LOX IMVI melanoma
M14 melanoma = tested on: M14 melanoma
T-47D breast = tested on: T-47D breast
SN12C renal = tested on: SN12C renal
RPMI-8226 leukemia = tested on: RPMI-8226 leukemia
OVCAR-8 ovarian = tested on: OVCAR-8 ovarian
MCF7 breast = tested on: MCF7 breast
CCRF-CEM leukemia = tested on: CCRF-CEM leukemia
HOP-62 NSCLC = tested on: HOP-62 NSCLC
NCI-H226 lung = tested on: NCI-H226 lung
CAKI-1 renal = tested on: CAKI-1 renal
NCI-H23 lung = tested on: NCI-H23 lung
SK-MEL-5 melanoma = tested on: SK-MEL-5 melanoma
HL-60(TB) leukemia = tested on: HL-60(TB) leukemia
SF-539 CNS = tested on: SF-539 CNS
TK-10 renal = tested on: TK-10 renal
MALME-3M melanoma = tested on: MALME-3M melanoma
NCI-H522 lung = tested on: NCI-H522 lung
ACHN renal = tested on: ACHN renal
NCI-H460 lung = tested on: NCI-H460 lung
SW-620 colon = tested on: SW-620 colon
SNB-75 CNS = tested on: SNB-75 CNS
SK-MEL-28 melanoma = tested on: SK-MEL-28 melanoma
OVCAR-4 ovarian = tested on: OVCAR-4 ovarian
MOLT-4 leukemia = tested on: MOLT-4 leukemia
HT29 colon = tested on: HT29 colon
OVCAR-5 ovarian = tested on: OVCAR-5 ovarian

## COc1cccc(C2=C(c3c(C)n(C)c4ccccc34)C(=O)NC2=O)c1
SNB-19 CNS
  GI50: > 25 µM
  TGI: > 25 µM
UO-31 renal
  GI50: 14 µM
  TGI: > 25 µM
A549 NSCLC
  GI50: 16.4 µM
  TGI: > 25 µM
RXF 393 renal
  GI50: 12 µM
  TGI: > 25 µM
786-0 renal
  GI50: > 25 µM
  TGI: > 25 µM
UACC-62 melanoma
  GI50: 12.3 µM
  TGI: > 25 µM
HS 578T breast
  GI50: 12.1 µM
  TGI: > 25 µM
NCI/ADR-RES ovarian
  GI50: 14 µM
  TGI: > 25 µM
UACC-257 melanoma
  GI50: > 25 µM
  TGI: > 25 µM
BT-549 breast
  GI50: > 21.7 µM
  TGI: > 25 µM
SK-OV-3 ovarian
  GI50: > 25 µM
  TGI: > 25 µM
DU-145 prostate
  GI50: > 25 µM
  TGI: > 25 µM
U251 CNS
  GI50: > 25 µM
  TGI: > 25 µM
MDA-MB-435
  GI50: 7.33 µM
  TGI: > 25 µM
MDA-MB-231 breast
  GI50: > 25 µM
  TGI: > 25 µM
HCC-2998 colon
  GI50: > 25 µM
  TGI: > 25 µM
PC-3 prostate
  GI50: 16.3 µM
  TGI: > 25 µM
COLO 205 colon
  GI50: 14.8 µM
  TGI: > 25 µM
SF-268 CNS
  GI50: > 23.1 µM
  TGI: > 25 µM
SF-295 CNS
  GI50: > 25 µM
  TGI: > 25 µM
IGROV1 ovarian
  GI50: > 22.3 µM
  TGI: > 25 µM
SR leukemia
  GI50: 11.8 µM
  TGI: > 25 µM
A498 renal
  GI50: 8.99 µM
  TGI: > 25 µM
HCT-116 colon
  GI50: 19.7 µM
  TGI: > 25 µM
SK-MEL-2 melanoma
  GI50: > 25 µM
  TGI: > 25 µM
K-562 leukemia
  GI50: 11 µM
  TGI: > 25 µM
OVCAR-3 ovarian
  GI50: > 23.9 µM
  TGI: > 25 µM
HCT-15 colon
  GI50: 12.1 µM
  TGI: > 25 µM
KM12 colon
  GI50: 15.5 µM
  TGI: > 25 µM
LOX IMVI melanoma
  GI50: > 25 µM
  TGI: > 25 µM
M14 melanoma
  GI50: 21.1 µM
  TGI: > 25 µM
T-47D breast
  GI50: 8.83 µM
  TGI: > 25 µM
SN12C renal
  GI50: > 25 µM
  TGI: > 25 µM
RPMI-8226 leukemia
  GI50: > 25 µM
  TGI: > 25 µM
OVCAR-8 ovarian
  GI50: > 25 µM
  TGI: > 25 µM
MCF7 breast
  GI50: 17.5 µM
  TGI: > 25 µM
CCRF-CEM leukemia
  GI50: > 25 µM
  TGI: > 25 µM
HOP-62 NSCLC
  GI50: > 25 µM
  TGI: > 25 µM
NCI-H226 lung
  GI50: > 19.1 µM
  TGI: > 25 µM
CAKI-1 renal
  GI50: > 25 µM
  TGI: > 25 µM
NCI-H23 lung
  GI50: > 25 µM
  TGI: > 25 µM
SK-MEL-5 melanoma
  GI50: 9.81 µM
  TGI: > 25 µM
HL-60(TB) leukemia
  GI50: > 17.1 µM
  TGI: > 25 µM
SF-539 CNS
  GI50: > 25 µM
  TGI: > 25 µM
TK-10 renal
  GI50: 24.2 µM
  TGI: > 25 µM
MALME-3M melanoma
  GI50: > 21.2 µM
  TGI: > 25 µM
NCI-H522 lung
  GI50: 15.3 µM
  TGI: > 25 µM
ACHN renal
  GI50: > 25 µM
  TGI: > 25 µM
NCI-H460 lung
  GI50: > 25 µM
  TGI: > 25 µM
SW-620 colon
  GI50: 12.4 µM
  TGI: > 25 µM
SNB-75 CNS
  GI50: 6.63 µM
  TGI: > 25 µM
SK-MEL-28 melanoma
  GI50: 24.9 µM
  TGI: > 25 µM
OVCAR-4 ovarian
  GI50: > 21.5 µM
  TGI: > 25 µM
MOLT-4 leukemia
  GI50: 16.1 µM
  TGI: > 25 µM
HT29 colon
  GI50: 14.4 µM
  TGI: > 25 µM
OVCAR-5 ovarian
  GI50: > 25 µM
  TGI: > 25 µM
